Test results from ChEMBL document CHEMBL3588782, “Synthesis, antiribosomal and antibacterial activity of 4-O-glycopyranosyl paromomycin aminoglycoside antibiotics” (Medchemcomm, 2014).
Converted amounts (≈) assume the structure as drawn.

How the values were obtained:
Bacterial 70S ribosome = test: Inhibition of Mycobacterium smegmatis ribosome containing wild type ribosomal RNA A-site in rabbit reticulocyte lysates assessed as reduction in ribosome-mediated protein synthesis in presence of S-30 extracts by fire fly luciferase synthesis based cell-free translation assay; set-up: species or system Mycolicibacterium smegmatis
[1] = Inhibition of Mycobacterium smegmatis ribosome containing ribosomal RNA A-site G1491C mutant in rabbit reticulocyte lysates assessed as reduction in ribosome-mediated protein synthesis in presence of S-30 extracts by fire fly luciferase synthesis based cell-free translation assay; set-up: species or system Mycolicibacterium smegmatis
[2] = Inhibition of Mycobacterium smegmatis ribosome containing ribosomal RNA A-site G1491A mutant in rabbit reticulocyte lysates assessed as reduction in ribosome-mediated protein synthesis in presence of S-30 extracts by fire fly luciferase synthesis based cell-free translation assay; set-up: species or system Mycolicibacterium smegmatis
[3] = Inhibition of Mycobacterium smegmatis ribosome containing ribosomal RNA A-site A1408G mutant in rabbit reticulocyte lysates assessed as reduction in ribosome-mediated protein synthesis in presence of S-30 extracts by fire fly luciferase synthesis based cell-free translation assay; set-up: species or system Mycolicibacterium smegmatis
80S Ribosome = test: Inhibition of human ribosome containing eukaryotic wild type ribosomal RNA A-site in rabbit reticulocyte lysates assessed as reduction in ribosome-mediated protein synthesis in presence of S-30 extracts by fire fly luciferase synthesis based cell-free translation assay
[4] = Inhibition of human ribosome containing eukaryotic ribosomal RNA A-site A1555G mutant in rabbit reticulocyte lysates assessed as reduction in ribosome-mediated protein synthesis in presence of S-30 extracts by fire fly luciferase synthesis based cell-free translation assay
[5] = Inhibition of human ribosome containing eukaryotic ribosomal RNA A-site Cyt14 allele in rabbit reticulocyte lysates assessed as reduction in ribosome-mediated protein synthesis in presence of S-30 extracts by fire fly luciferase synthesis based cell-free translation assay
Ribosome = test: Inhibition of ribosome-mediated protein synthesis in rabbit reticulocyte lysates in presence of S-30 extracts by fire fly luciferase synthesis based cell-free translation assay; set-up: species or system Oryctolagus cuniculus
Staphylococcus aureus [6] = test: Antibacterial activity against methicillin-resistant Staphylococcus aureus isolate AG 038 by broth microdilution assay; format: functional
Staphylococcus aureus [7] = test: Antibacterial activity against methicillin-resistant Staphylococcus aureus isolate AG 039 by broth microdilution assay; format: functional
Staphylococcus aureus [8] = test: Antibacterial activity against methicillin-resistant Staphylococcus aureus isolate AG 042 by broth microdilution assay; format: functional
Staphylococcus aureus [9] = test: Antibacterial activity against methicillin-resistant Staphylococcus aureus isolate AG 044 by broth microdilution assay; format: functional
Escherichia coli [10] = test: Antibacterial activity against Escherichia coli isolate 006 by broth microdilution assay; format: functional
Escherichia coli [11] = test: Antibacterial activity against Escherichia coli isolate 001 by broth microdilution assay; format: functional
Escherichia coli [12] = test: Antibacterial activity against Escherichia coli isolate 055 by broth microdilution assay; format: functional
Escherichia coli [13] = test: Antibacterial activity against Escherichia coli isolate 003 by broth microdilution assay; format: functional

Row | Compound | IC50 (Bacterial 70S ribosome) | IC50 [1] | IC50 [2] | IC50 [3] | IC50 (80S Ribosome) | IC50 [4] | IC50 [5] | IC50 (Ribosome) | MIC (Staphylococcus aureus [6]) | MIC (Staphylococcus aureus [7]) | MIC (Staphylococcus aureus [8]) | MIC (Staphylococcus aureus [9]) | MIC (Escherichia coli [10]) | MIC (Escherichia coli [11]) | MIC (Escherichia coli [12]) | MIC (Escherichia coli [13])
1 | NC[C@@H]1O[C@H](O[C@H]2[C@@H](O)[C@H](O[C@@H]3[C@@H](O)[C@H](N)C[C@H](N)[C@H]3O[C@H]3O[C@H](CO)[C@@H](O[C@H]4O[C@H](CO)[C@@H](N)[C@H](O)[C@H]4O)[C@H](O)[C@H]3N)O[C@@H]2CO)[C@H](N)[C@@H](O)[C@@H]1O | 154 nM | 32.79 µg/mL | 6.07 µg/mL | 7.06 µg/mL | 438 nM | 3.62 µg/mL | 18.95 µg/mL | 19.59 µg/mL | 4 µg/mL (≈ 5.15 µM) | 8 µg/mL (≈ 10.3 µM) | 8 µg/mL (≈ 10.3 µM) | 4 µg/mL (≈ 5.15 µM) | 2 µg/mL (≈ 2.57 µM) | 32 µg/mL (≈ 41.2 µM) | 32 µg/mL (≈ 41.2 µM) | 16 µg/mL (≈ 20.6 µM)
2 | NC[C@@H]1O[C@H](O[C@H]2[C@@H](O)[C@H](O[C@@H]3[C@@H](O)[C@H](N)C[C@H](N)[C@H]3O[C@H]3O[C@H](CO)[C@@H](O[C@H]4O[C@H](CO)[C@H](O)[C@H](O)[C@H]4O)[C@H](O)[C@H]3N)O[C@@H]2CO)[C@H](N)[C@@H](O)[C@@H]1O | 707 nM | 118.67 µg/mL | 18.68 µg/mL | 12.01 µg/mL | 2870 nM | 14.95 µg/mL | 35.63 µg/mL | 23.75 µg/mL | 64 µg/mL (≈ 82.3 µM) | 128 µg/mL (≈ 165 µM) | 64 µg/mL (≈ 82.3 µM) | 64 µg/mL (≈ 82.3 µM) | 32 µg/mL (≈ 41.1 µM) | > 128 µg/mL | > 128 µg/mL | > 128 µg/mL
